Measurements published in US20090221649A1, “Use of substituted 2-thio-3,5-dicyano-4-phenyl-6-aminopyridines for the treatment of reperfusion injury and reperfusion damage” (Bayer HealthCare AG, priority 2005, published 2009).
Entries after “also recorded” stand apart in the source; their conditions may differ.

Experiments:
[1] = test system: isolated rabbit hearts; assay: Limitation of infarct size in isolated buffer-perfused rabbit hearts, drug at reperfusion
Experimental: The quantification of infarct size and experimental design followed the protocol described by Zhang et al., J Cardiovasc Pharmacol 42, 2003.
Hearts were quickly removed from anesthetized rabbits and perfused with Krebs buffer. […] The risk zone was stained with fluorescent microspheres, then the heart was sliced into 2 mm sections and the infarct size was visualized by tetrazolium staining. The drug was mixed with the perfusate at 50 μg/L starting 5 min prior to reperfusion and continuing for 55 min. […] Ischemic preconditioning is the most powerful cardioprotective intervention known but of no practical value clinically.

[2] = Tolerability when given intravenously; assay type: in vivo
[3] = test system: rabbit hearts (in vivo); assay: Limitation of infarct size in rabbit hearts in vivo (open-chest rabbits), drug at reperfusion; parameters: species or system New Zealand White rabbits
Experimental: Rabbits (New Zealand White rabbits of either sex weighing 1.6 to 3.0 kg) were anesthetized with sodium pentobarbital (30 mg/kg) which was subsequently supplemented as needed. Positive pressure ventilation with 100% oxygen was instituted. The heart was exposed through a left thoracotomy and a ligature was passed under a coronary branch to create the ischemia. Drug was given intravenously in a dose of 10 μg/kg over 1 min starting 5 min prior to reperfusion and again 15 min after reperfusion. The heart was removed after 3 hr of reperfusion. The risk zone was stained with fluorescent microspheres, then the heart was sliced into 2 mm sections and the infarct size was determined by tetrazolium staining.
Postconditioning is an established cardioprotective intervention where the occluded artery is intermittently opened and closed for four 30-second cycles at the end of the ischemic insult.

Structure (SMILES) | reduction of infarct size ([1]; 50 μg/L in perfusate from 5 min prior to reperfusion for 55 min, 30 min ischemia, 2 hr reperfusion) [%] | protection compared with ischemic preconditioning (IPC) ([1]; 50 μg/L, IPC = 5 min ischemia and 10 min reperfusion) | infarct size in % of risk area, untreated hearts in comparison to treated hearts ([1]; 50 μg/L, p=0.032) | tolerability [2] | infarct size limitation compared with postconditioning ([3]; 10 μg/kg i.v. 5 min prior to and 15 min after reperfusion) | reduction of infarct size ([3]; 10 μg/kg i.v. 5 min prior to and 15 min after reperfusion, 30 min regional ischemia, 3 hr reperfusion) [%] | adverse hemodynamic effects ([3]; 10 μg/kg i.v., open-chest rabbits)
N#Cc1c(N)nc(SCC(N)=O)c(C#N)c1-c1ccc(O)cc1 [Compound A, 2-{[6-Amino-3,5-dicyano-4-(4-hydroxyphenyl)pyridin-2-yl]thio}acetamide] | ~50 | not as protective as ischemic preconditioning | significantly larger | – | – | – | –
N#Cc1c(N)nc(SCC(N)=O)c(C#N)c1-c1ccc(OCC2CC2)cc1 [Compound B, 2-({6-Amino-3,5-dicyano-4-[4-(cyclopropylmethoxy)phenyl]pyridin-2-yl}thio)acetamide] | – | – | – | well tolerated | equivalent to postconditioning in its potency; also recorded: as effective as postconditioning | > 50 | No adverse hemodynamic effects
